In patent publication US9421222B2, “Treatment of compartment syndrome” (LONDON HEALTH SCIENCES CENTRE RESEARCH INC., priority 2013, dated 2016):
Entries after “also recorded” stand apart in the source; their conditions may differ.

Tests used:
Type in all cases: in vivo
[1] = test system: TNF-α; test: Serum TNF-α (ELISA) in rat CS model; conditions: 30 and 45 minutes post-fasciotomy, 10 mg/kg IP
Experimental: TNF-α levels were measured from arterial blood samples drawn at 9 time points: (1) baseline, (2) 15 minutes into CS, (3) 45 minutes into CS, (4) 90 minutes into CS, (5) 2 hours into CS-just prior to fasciotomy and CORM-3 (or iCORM-3) injection, (6) 10 minutes post-fasciotomy, (7) 20 minutes post fasciotomy, (8) 30 minutes post fasciotomy, (9) 45 minutes post fasciotomy, just before IVVM. TNF-α was assessed using enzyme-linked immunosorbent assay (ELISA, Pierce Biotechnology, c/o Thermo Scientific, Rockford, Ill.) according to manufacturer's instructions. The TNF-α ELISA was sensitive to less than […].

[2] = test system: compartment syndrome; test: CatWalk gait assessment in rats after CS without fasciotomy; conditions: rat, 180 min CS, no fasciotomy
Experimental: Animal preparation and synthesis of CORM-3 were similar to Example 3.
Complete inducement of CS occurred at about 180 minutes post induction. The animals were injected at 180 minutes and every 24 hours thereafter.
Quantitative assessment of footfalls and gait in the rats was assessed using CatWalk™, which a system for quantitative assessment of footfalls and gait in rats and mice.

[3] = test system: compartment syndrome; test: Porcine model of compartment syndrome: PMN activation and capillary perfusion (IVVM); conditions: pig, 6 h elevated ICP, 10 mg/kg
Experimental: (§1) Following the basic surgical setup (anesthesia, intubation, auricular vein and femoral artery catheterization), the animals undergo 6 hours of elevated intra-compartmental pressure (i.e. CS), followed by fasciotomy and reperfusion. The time interval was chosen in order to closely mimic the condition in human patients. CORM-3 (or iCORM-3), 10 mg/kg of animal is applied prior to fasciotomy. Blood is sampled at various time intervals (baseline, 1 hr CS, 2 hr CS, 3 hr CS, 4 hr CS, 5 hr CS, 6 hr CS/fasciotomy, and every 10-15 min post-fasciotomy, for a total of 20 samples per animal), in order to monitor leukocyte activation and serum TNF-α levels. IVVM is carried out at 3 hours post-fasciotomy.

[4] = test system: TNF-α; test: Serum TNF-α time course in porcine model of CS; conditions: pig, 6 h elevated ICP, 10 mg/kg, 3 h reperfusion
Experimental: as §1

[5] = test system: CS-challenged skeletal muscle (EDL); test: Rat compartment syndrome model, intravital video microscopy (IVVM) of EDL muscle
From the text: (§2) The experimental protocol was approved by the Council on Animal Care of the University of Western Ontario, and has been previously described in detail. Briefly, male Wistar rats (body weight 180-250 g) were anesthetized by inhalational isoflurane (5% induction, 2% maintenance) in 1:1 oxygen/nitrogen mixture. Left carotid artery was cannulated to allow for the monitoring of systemic blood pressure, fluid administration and blood sampling.
(§3) Compartment pressure monitoring probe (Synthes, Westchester Pa.) was inserted into the posterior compartment via gauge 16 angiocatheter (BD), while gauge 24 angiocatheter (BD) attached to an IV line was placed into the anterior compartment of the rat hind limb. CS was induced by an infusion of isotonic saline, leading to an elevation of intra-compartmental pressure (ICP) to 30 mmHg. Elevated ICP was maintained for 2 hours. Fasciotomy was performed to decompress the hind limb compartments; the muscles were allowed to reperfuse for 45 minutes, followed by intravital video microscopy.
(§4) Rats were randomly assigned to one of four experimental groups: sham (n=4), CS (n=4), CS+CORM-3 (n=8) and CS+iCORM-3 (n=8).
The extensor digitorum longus (EDL) muscle was dissected to the level of its distal tendon, which was tied with a suture and cut from its bony insertion. The animal was transferred onto the stage of an inverted microscope (Nikon™); the EDL was reflected into a saline bath containing 5 μg/ml each of the fluorescent vital dyes bisbenzimide (BB; exc. 343 nm, em. 483 nm) and ethidium bromide (EB; exc. 482 nm, em. 616 nm). BB stains the nuclei of all cells while EB stains the nuclei of only those cells with damaged cell membrane. Thus, EB/BB ratio provided an index of tissue injury.
Microvascular perfusion and leukocytes within the post-capillary venules were recorded by translumination with 20× and 40× objectives, respectively, in five adjacent fields of view. Fluorescence microscopy was used to visualize the BB and EB from the same fields of view that had been selected for the measurement of capillary perfusion. At the conclusion of the experiment, rats were euthanized by an overdose of anesthetic agent.
Capillary perfusion was assessed by counting the number of continuously-perfused (CPC), intermittently-perfused (IPC) and non-perfused (NPC) capillaries that crossed three parallel lines drawn perpendicular to the capillary axis on the video monitor, and was expressed as % of total capillaries. Tissue injury was assessed by counting the number of EB- and BB-labelled nuclei, and expressed as EB/BB ratio. Leukocyte activation was assessed by counting the numbers of rolling and adherent leukocytes in post-capillary venules and expressed per 1000 μm^2. Venular area was measured using ImageJ (NIH, Bethesda, Md.). A leukocyte was considered adherent if it remained stationary for at least 30 seconds, and a cell was considered rolling if it remained in contact with the wall of the vessel during its movement.

[6] = Systemic leukocyte counts, hemoglobin and carboxyhemoglobin in rat CS model
From the text: as §2, §3, §4
Two hours of elevated ICP were followed by fasciotomy, injection of CORM-3 (or iCORM-3) and 45 min reperfusion. CS-associated rise in systemic leukocytes was reversed by CORM-3 application (*p<0.01 from sham; †p<0.05 from CS+iCORM-3). CORM-3 and iCORM-3 caused no changes in systemic levels of COHb. LKC, leukocyte counts; COHb, carboxyhemoglobin.

[7] = rat CS model, 10 mg/kg IP at fasciotomy
[8] = rat CS model, CORM-3 versus control
[9] = rat, 2 h elevated ICP, fasciotomy, 10 mg/kg IP, 45 min reperfusion, mean±SEM

Structure (SMILES): NCC(=O)O.[C-]#[O+].[C-]#[O+].[C-]#[O+].[Cl][Ru] [CORM-3, tricarbonylchloro-glycinate-ruthenium(II)]
- Serum TNF-α in post-fasciotomy/reperfusion period [1]: effectively prevented; also recorded: reversed
- Static and dynamic gait functional parameters (CatWalk) ([2]; 10 mg/kg IP at 180 min and every 24 h, relative to iCORM-3): significantly improved
- Weight bearing parameters (CatWalk) ([2]; multi dose 10 mg/kg IP): improvement
- Continuously-perfused capillaries (CPC) ([3]; IVVM 3 h post-fasciotomy): increase
- Intermittently-perfused capillaries (IPC) ([3]; IVVM 3 h post-fasciotomy): decrease
- Non-perfused capillaries (NPC) ([3]; IVVM 3 h post-fasciotomy): decrease
- Number of activated PMNs post-fasciotomy ([3]; fasciotomy, versus iCORM-3): significant decrease
- Serum TNF-α release associated with post-fasciotomy/reperfusion [4]: prevented any TNF-α release
- Effect on leukocyte adhesion within post-capillary venules ([5]; rat CS model, 10 mg/kg IP): prevent leukocyte adhesion
- Effect on leukocyte rolling ([5]; rat CS model, 10 mg/kg IP): no effect
- Effect on CS-associated microvascular perfusion changes [5, 7]: reversed
- Effect on CS-associated tissue injury [5, 7]: reversed
- Decrease in leukocyte adherence (leukocyte activation) [5, 8]: 8 fold
- Decrease in tissue injury [5, 8]: 4 fold
- Leukocyte adherence in post-capillary venules [5, 9]: 0.6±0.3 leukocytes/30 s/1000 μm^2
- Leukocyte rolling in post-capillary venules [5, 9]: 3.0±0.8 leukocytes/30 s/1000 μm^2
- Muscle injury, EB/BB ratio [5, 9]: 0.07±0.01
- Continuously-perfused capillaries (CPC) ([5]; rat, % of total capillaries, 2 h elevated ICP, fasciotomy, 10 mg/kg IP, 45 min reperfusion, mean±SEM): 57±5%
- Effect on COHb levels ([6]; rat CS model, 10 mg/kg IP): no effect
- Effect on CS-associated rise in systemic leukocyte counts [6, 7]: decrease the severity of this response
- COHb (carboxyhemoglobin) [6, 9]: 1.6 ± 0.1%
- Hemoglobin [6, 9]: 129.5 ± 2.7 g/L
- LKC (systemic leukocyte counts) [6, 9]: 2.3 ± 0.2^† Units × 10^9/L
